This is an account of results in ChEMBL document CHEMBL1201862, “PubChem BioAssay data set” (2004).

Test systems include HCT-15; SF-295; SN12C; MDA-MB-231; LOX IMVI; SW-620; A498; Malme-3M; OVCAR-3; SNB-75; SNB-19; UACC-62; KM12; TK-10; SK-MEL-2; HT-29; MOLT-4; OVCAR-8; SK-MEL-28; RPMI-8226.
What all share (assay): DTP human tumour cell line panel, 48 h

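Following 48 hours of exposure in 96-well plates, responses at five concentrations were used to interpolate endpoints linearly. The concentration for 50% growth inhibition is given as GI50.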 The source made the active and inactive calls. No stated cut-off is given here; in the data, active = GI50 up to about 1.1 µM and inactive = higher.

As for `NC1c2c(Br)sc(N3CCCC3)c2C(=O)C1O` (stereo not given), the GI50 in the assay on HCT-15 is above 50 µM; in the assay on SF-295, > 50 µM (inactive); in the assay with SN12C it was > 50 µM (inactive); in the assay with MDA-MB-231, 29.1 µM (inactive); in the assay with LOX IMVI, > 50 µM (inactive); in the assay on SW-620 it was > 50 µM (inactive). For the same molecule, the GI50 in the assay on A498, in the assay on Malme-3M, in the assay on OVCAR-3, in the assay with SNB-75, in the assay on SNB-19 and in the assay with UACC-62 was > 50 µM (inactive) in each case. Moreover, the GI50 in the assay on KM12, in the assay with TK-10, with SK-MEL-2, with HT-29, in the assay on MOLT-4 and in the assay with OVCAR-8 was > 50 µM (inactive) in each case.
For `CCCSc1cc(Cl)c(C)cc1S(=O)(=O)n1ccnc1OCCCN(C)C`, the GI50 with HCT-15 was above 100 µM; in the assay with SF-295, > 100 µM (inactive); in the assay with SN12C it was > 100 µM (inactive); with MDA-MB-231, > 100 µM (inactive); in the assay on LOX IMVI, > 100 µM (inactive); with SK-MEL-28, > 100 µM (inactive). Also, the GI50 with SW-620, in the assay with A498, in the assay with Malme-3M, in the assay on OVCAR-3, in the assay with SNB-19 and in the assay with UACC-62 was > 100 µM (inactive) in each case. Further, the GI50 in the assay on KM12, in the assay on TK-10, in the assay with SK-MEL-2, in the assay with HT-29, in the assay with MOLT-4 and with OVCAR-8 was > 100 µM (inactive) in each case.
On to `CCN(CC)CCOC(NC(C)=O)(c1ccccc1)c1ccccc1`, for which the GI50 with HCT-15 is above 100 µM; in the assay on RPMI-8226, > 100 µM (inactive); in the assay with SF-295 it was > 100 µM (inactive); with SN12C it was > 100 µM (inactive); in the assay on MDA-MB-231 it was > 100 µM (inactive); in the assay on SK-MEL-28, > 100 µM (inactive). The GI50 with SW-620, with A498, with Malme-3M, with SNB-75, in the assay on SNB-19 and in the assay on UACC-62 was > 100 µM (inactive) each time. Moreover, the GI50 in the assay with KM12, in the assay on TK-10, with HT-29, in the assay with MOLT-4 and in the assay with OVCAR-8 was > 100 µM (inactive) each time.
Turning to `CCOC(=O)CCC(NC(=O)C(N)c1ccc([N+](=O)[O-])cc1)C(=O)NC(CCC(=O)OCC)C(=O)OCC` (stereo not given), the GI50 was above 100 µM in the assay with HCT-15; > 100 µM (inactive) with RPMI-8226; > 100 µM (inactive) with SN12C; > 100 µM (inactive) in the assay on MDA-MB-231; > 100 µM (inactive) in the assay with SK-MEL-28; > 100 µM (inactive) in the assay on SW-620. Also, the GI50 in the assay with A498, in the assay on Malme-3M, in the assay on SNB-75, with SNB-19, in the assay on UACC-62 and in the assay with KM12 was > 100 µM (inactive) each time. Further, the GI50 with TK-10, in the assay on SK-MEL-2, with HT-29, in the assay with MOLT-4 and in the assay on OVCAR-8 was > 100 µM (inactive) each time.
With `Cc1ccc(OCC2OC(n3cnc4c(N(C)C)nc(Br)nc43)CC2Oc2ccc(C)cc2)cc1` (stereo not given), the GI50 was above 100 µM with HCT-15; 58.2 µM (inactive) in the assay with RPMI-8226; > 100 µM (inactive) in the assay on SF-295; > 100 µM (inactive) with SN12C; > 100 µM (inactive) in the assay on MDA-MB-231; > 100 µM (inactive) with LOX IMVI. In addition, the GI50 in the assay with SK-MEL-28, in the assay with SW-620, with A498, in the assay on Malme-3M, in the assay with OVCAR-3 and in the assay with SNB-19 was > 100 µM (inactive) throughout. The GI50 with UACC-62, in the assay with KM12, in the assay on TK-10, in the assay with SK-MEL-2, in the assay with HT-29 and in the assay on OVCAR-8 was > 100 µM (inactive) throughout.
With `COC(=O)c1c2c(cc3c1CC1(C3)Cc3cc4c(c(C(=O)OC)c3C1)CCC4)CCC2`, the GI50 in the assay with RPMI-8226, in the assay with SF-295, in the assay on SN12C, in the assay on MDA-MB-231, in the assay on LOX IMVI and with A498 was > 100 µM (inactive) throughout. Moreover, the GI50 in the assay on Malme-3M was > 100 µM (inactive); with OVCAR-3, > 100 µM (inactive); with UACC-62, 55.8 µM (inactive); in the assay on KM12, > 100 µM (inactive); in the assay on TK-10 it was > 100 µM (inactive); in the assay with SK-MEL-2, > 100 µM (inactive). For the same molecule, the GI50 in the assay on HT-29, with MOLT-4 and in the assay on OVCAR-8 was > 100 µM (inactive) in each case.
Consider `C[C@@H]1S[C@H](c2c(Cl)cccc2Cl)N2Cc3ccccc3N=C12`, for which the GI50 in the assay with HCT-15 is above 100 µM; with RPMI-8226, > 100 µM (inactive); in the assay on SF-295 it was > 100 µM (inactive); in the assay on SN12C, > 100 µM (inactive); in the assay with MDA-MB-231, > 100 µM (inactive); in the assay with LOX IMVI it was > 100 µM (inactive). The GI50 in the assay on SK-MEL-28, in the assay with SW-620, with A498, in the assay on OVCAR-3, in the assay with SNB-75 and in the assay with SNB-19 was > 100 µM (inactive) each time. The GI50 with UACC-62 was 97.3 µM (inactive); in the assay with KM12, 85.5 µM (inactive); with TK-10, > 100 µM (inactive); in the assay on SK-MEL-2, > 100 µM (inactive); in the assay with MOLT-4 it was > 100 µM (inactive).
Consider `CC(=O)OC[C@@]12Cc3ccc(C)c(O)c3[C@]1(C)[C@@H](OC(C)=O)[C@]1(O)[C@H]([C@@H](OC(=O)c3ccccc3)[C@@H](C)[C@H]1OC(C)=O)[C@H]2OC(C)=O`, for which the GI50 in the assay with HCT-15 is above 50 µM; in the assay on SF-295, > 50 µM (inactive); with SN12C it was > 50 µM (inactive); in the assay on MDA-MB-231, > 50 µM (inactive); in the assay with LOX IMVI it was > 50 µM (inactive); in the assay with SW-620, > 50 µM (inactive). Also, the GI50 in the assay with A498 was > 50 µM (inactive); in the assay on OVCAR-3 it was > 50 µM (inactive); in the assay on SNB-75, 16.4 µM (inactive); in the assay on SNB-19, > 50 µM (inactive); in the assay on UACC-62, > 50 µM (inactive); in the assay with KM12, > 50 µM (inactive). Further, the GI50 in the assay with TK-10, in the assay with SK-MEL-2, in the assay on MOLT-4 and in the assay with OVCAR-8 was > 50 µM (inactive) in each case.
Take `Cc1ccc(S(=O)(=O)N2CCSCCSCCN(S(=O)(=O)c3ccc(C)cc3)CCN(S(=O)(=O)c3ccc(C)cc3)CC2)cc1`: the concentration for 50% growth inhibition (GI50) in the assay on HCT-15 is above 100 µM; in the assay on RPMI-8226, > 100 µM (inactive); with SF-295, > 100 µM (inactive); with SN12C, > 100 µM (inactive); in the assay on MDA-MB-231, > 100 µM (inactive); in the assay on LOX IMVI it was > 100 µM (inactive). Further, the GI50 in the assay on SK-MEL-28, with SW-620, with A498, in the assay on Malme-3M, in the assay with OVCAR-3 and in the assay with SNB-19 was > 100 µM (inactive) each time. Moreover, the GI50 in the assay with KM12, in the assay with TK-10, with SK-MEL-2, with HT-29, in the assay on MOLT-4 and with OVCAR-8 was > 100 µM (inactive) each time.
`N=c1oc2ccc(Cl)cc2cc1C(=O)NC1CCCCC1`: the GI50 was 37.8 µM in the assay on HCT-15; 59.3 µM (inactive) in the assay on RPMI-8226; > 100 µM (inactive) in the assay with SN12C; > 100 µM (inactive) in the assay with MDA-MB-231; 53 µM (inactive) in the assay with LOX IMVI; 98.6 µM (inactive) in the assay on SK-MEL-28. Further, the GI50 in the assay with SW-620 is 96.4 µM (inactive); in the assay with A498, 63.8 µM (inactive); in the assay on OVCAR-3, 44.4 µM (inactive); in the assay on SNB-75, 84.5 µM (inactive); with SNB-19, > 100 µM (inactive); in the assay with UACC-62 it was 59.2 µM (inactive). Further, the GI50 in the assay with KM12 was 47.6 µM (inactive); in the assay on SK-MEL-2, 47.6 µM (inactive); in the assay on HT-29, > 100 µM (inactive); in the assay on MOLT-4 it was 44.2 µM (inactive); in the assay with OVCAR-8, > 100 µM (inactive).
As to `CC(=O)C1(Cc2cccc3ccccc23)S(=O)(=O)OCCOS1(=O)=O`, the GI50 was 19.2 µM with HCT-15; 19.5 µM (inactive) with RPMI-8226; 0.843 µM (active) with SF-295; 11.9 µM (inactive) with SN12C; 15.8 µM (inactive) with MDA-MB-231; 12.1 µM (inactive) in the assay on LOX IMVI. The GI50 in the assay with SK-MEL-28 was 19.3 µM (inactive); with SW-620, 18.3 µM (inactive); in the assay with A498, 19 µM (inactive); in the assay with Malme-3M it was 17.3 µM (inactive); in the assay with OVCAR-3 it was 19.7 µM (inactive); in the assay with SNB-75, 35.4 µM (inactive). The GI50 with SNB-19 is 18.4 µM (inactive); with UACC-62, 14.6 µM (inactive); in the assay with KM12, 15.4 µM (inactive); in the assay with TK-10, 17.3 µM (inactive); in the assay with HT-29, 17.5 µM (inactive); in the assay on MOLT-4 it was 29.1 µM (inactive). The GI50 in the assay with OVCAR-8 was 19.5 µM (inactive).
